Experiment: in vitro
Settings: for Concentration, analyte PEA / % Remaining of Initial (n = 1) / Measured concentration of PEA (analyte) / % Remaining of Initial: 1 μM
In short: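 Cofactor-supplemented liver S9 incubations at 37 °C contained 1 µM compound; timepoints out to 60 min, acid/organic quench, then LC-MS/MS monitoring of prodrug alongside its expected drug, PEA. Data are expressed as % remaining versus the zero-minute sample.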

[1] = male, CD-1, mouse, s9, Half-life
[2] = male, Sprague-Dawley, rat, 0 min
[3] = male, Sprague-Dawley, rat, 10 min
[4] = male, Sprague-Dawley, rat, 20 min
[5] = male, Sprague-Dawley, rat, 30 min
[6] = male, Sprague-Dawley, rat, 60 min
[7] = male, Sprague-Dawley, rat, s9, 0 h
[8] = male, Sprague-Dawley, rat, s9, 10 min
[9] = male, Sprague-Dawley, rat, s9, 20 min
[10] = male, Sprague-Dawley, rat, s9, 0.5 h
[11] = male, Sprague-Dawley, rat, s9, 1 h
[12] = male, Sprague-Dawley, rat, s9, Half-life

What does the source list for `CCCCC/C=C\C/C=C\CCCCCCCC(=O)OCC(COC(=O)CCC(=O)OCCNC(=O)CCCCCCCCCCCCCCC)OC(=O)CCCCCCC/C=C\C/C=C\CCCCC` (centres unmarked) [Compound I-13]?
Concentration, analyte PEA (both, human, 0 min): 0 µM; Concentration, analyte PEA (both, human, 10 min): 0 µM; Concentration, analyte PEA (both, human, 20 min): 0 µM; Concentration, analyte PEA (both, human, 30 min): 0 µM; Concentration, analyte PEA (both, human, 60 min): 0 µM; % Remaining of Initial (n = 1) (both, human, s9, 0 h): 100%; % Remaining of Initial (n = 1) (both, human, s9, 10 min): 93%; % Remaining of Initial (n = 1) (both, human, s9, 20 min): 87%; % Remaining of Initial (n = 1) (both, human, s9, 0.5 h): 78%; % Remaining of Initial (n = 1) (both, human, s9, 1 h): 45%; half-life at 1 μM (both, human, s9, Half-life): 58 min; Concentration, analyte PEA (male, Beagle, dog, 0 min): 0.015 µM; Concentration, analyte PEA (male, Beagle, dog, 10 min): 0.025 µM; Concentration, analyte PEA (male, Beagle, dog, 20 min): 0.020 µM; Concentration, analyte PEA (male, Beagle, dog, 30 min): 0.024 µM; Concentration, analyte PEA (male, Beagle, dog, 60 min): 0.021 µM; % Remaining of Initial (n = 1) (male, Beagle, dog, s9, 0 h): 100%; % Remaining of Initial (n = 1) (male, Beagle, dog, s9, 10 min): 70%; % Remaining of Initial (n = 1) (male, Beagle, dog, s9, 20 min): 61%; % Remaining of Initial (n = 1) (male, Beagle, dog, s9, 0.5 h): 61%; % Remaining of Initial (n = 1) (male, Beagle, dog, s9, 1 h): 37%; Concentration, analyte PEA (male, CD-1, mouse, 0 min): 0 µM; Concentration, analyte PEA (male, CD-1, mouse, 10 min): 0 µM; Concentration, analyte PEA (male, CD-1, mouse, 20 min): 0 µM; Concentration, analyte PEA (male, CD-1, mouse, 30 min): 0 µM; Concentration, analyte PEA (male, CD-1, mouse, 60 min): 0 µM; % Remaining of Initial (n = 1) (male, CD-1, mouse, s9, 0 h): 100%; % Remaining of Initial (n = 1) (male, CD-1, mouse, s9, 10 min): 89%; % Remaining of Initial (n = 1) (male, CD-1, mouse, s9, 20 min): 90%; % Remaining of Initial (n = 1) (male, CD-1, mouse, s9, 0.5 h): 79%; % Remaining of Initial (n = 1) (male, CD-1, mouse, s9, 1 h): 78%; half-life at 1 μM [1]: > 60 min; Concentration, analyte PEA [2]: 0 µM; Concentration, analyte PEA [3]: 0 µM; Concentration, analyte PEA [4]: 0 µM; Concentration, analyte PEA [5]: 0 µM; Concentration, analyte PEA [6]: 0 µM; % Remaining of Initial (n = 1) [7]: 100%; % Remaining of Initial (n = 1) [8]: 76%; % Remaining of Initial (n = 1) [9]: 74%; % Remaining of Initial (n = 1) [10]: 59%; % Remaining of Initial (n = 1) [11]: 45%; half-life at 1 μM [12]: 50 min

For `CCCCCCCCCCCCCCCC(=O)NCCOC(=O)CCC(=O)OC(COC(=O)CCC)COC(=O)CCC` [Compound I-16], which “Measured concentration of PEA (analyte)” value (both, human, 0 min) is on record?
The value was 0.10 µM.

And the “Measured concentration of PEA (analyte)” value (both, human, 10 min)?
The value was 0.46 µM.

And the “Measured concentration of PEA (analyte)” value (both, human, 20 min)?
The value was 0.42 µM.

What about the “Measured concentration of PEA (analyte)” value (both, human, 30 min) of the same compound?
Its value is 0.39 µM.

What about the “Measured concentration of PEA (analyte)” value (both, human, 60 min) of the same compound?
The value was 0.27 µM.

And the “% Remaining of Initial” value (both, human, s9, 0 h)?
Its value is 100%.

What about the “% Remaining of Initial” value (both, human, s9, 10 min) of the same compound?
Its value is 4.9%.

What about the “% Remaining of Initial” value (both, human, s9, 20 min) of the same compound?
The value was 2.1%.

And the “% Remaining of Initial” value (both, human, s9, 0.5 h)?
Its value is less than 1.0%.

What about the “% Remaining of Initial” value (both, human, s9, 1 h) of the same compound?
Its value is less than 1.0%.

What about the half-life at 1 μM (both, human, s9, Half-life) of the same compound?
Its half-life at 1 μM is less than 10 min.

And the “Measured concentration of PEA (analyte)” value (male, Beagle, dog, 0 min)?
Its value is 0.053 µM.

What about the “Measured concentration of PEA (analyte)” value (male, Beagle, dog, 10 min) of the same compound?
Its value is 0.26 µM.

What about the “Measured concentration of PEA (analyte)” value (male, Beagle, dog, 20 min) of the same compound?
The value was 0.33 µM.

And the “Measured concentration of PEA (analyte)” value (male, Beagle, dog, 30 min)?
The value was 0.29 µM.

What about the “Measured concentration of PEA (analyte)” value (male, Beagle, dog, 60 min) of the same compound?
Its value is 0.23 µM.

And the “% Remaining of Initial” value (male, Beagle, dog, s9, 0 h)?
The value was 100%.

And the “% Remaining of Initial” value (male, Beagle, dog, s9, 10 min)?
The value was 2.1%.

What about the “% Remaining of Initial” value (male, Beagle, dog, s9, 20 min) of the same compound?
The value was less than 1.0%.

What about the “% Remaining of Initial” value (male, Beagle, dog, s9, 0.5 h) of the same compound?
The value was less than 1.0%.

And the “% Remaining of Initial” value (male, Beagle, dog, s9, 1 h)?
The value was less than 1.0%.

And the half-life at 1 μM (male, Beagle, dog, s9, Half-life)?
The half-life at 1 μM was less than 10 min.

And the “Measured concentration of PEA (analyte)” value (male, CD-1, mouse, 0 min)?
The value was 0.33 µM.

And the “Measured concentration of PEA (analyte)” value (male, CD-1, mouse, 10 min)?
The value was 0.78 µM.

And the “Measured concentration of PEA (analyte)” value (male, CD-1, mouse, 20 min)?
The value was 0.68 µM.

And the “Measured concentration of PEA (analyte)” value (male, CD-1, mouse, 30 min)?
Its value is 0.59 µM.

And the “Measured concentration of PEA (analyte)” value (male, CD-1, mouse, 60 min)?
The value was 0.43 µM.

What about the “% Remaining of Initial” value (male, CD-1, mouse, s9, 0 h) of the same compound?
The value was 100%.

And the “% Remaining of Initial” value (male, CD-1, mouse, s9, 10 min)?
The value was 3.7%.

And the “% Remaining of Initial” value (male, CD-1, mouse, s9, 20 min)?
The value was less than 1.0%.

What about the “% Remaining of Initial” value (male, CD-1, mouse, s9, 0.5 h) of the same compound?
The value was less than 1.0%.

What about the “% Remaining of Initial” value (male, CD-1, mouse, s9, 1 h) of the same compound?
Its value is less than 1.0%.

What about the half-life at 1 μM [1] of the same compound?
The half-life at 1 μM was less than 10 min.

And the “Measured concentration of PEA (analyte)” value [2]?
The value was 0.050 µM.

What about the “Measured concentration of PEA (analyte)” value [3] of the same compound?
The value was 0.13 µM.

What about the “Measured concentration of PEA (analyte)” value [4] of the same compound?
The value was 0.13 µM.

And the “Measured concentration of PEA (analyte)” value [5]?
The value was 0.058 µM.

What about the “Measured concentration of PEA (analyte)” value [6] of the same compound?
The value was 0.020 µM.

And the “% Remaining of Initial” value [7]?
The value was 100%.

And the “% Remaining of Initial” value [8]?
The value was 3.0%.

What about the “% Remaining of Initial” value [9] of the same compound?
Its value is less than 1.0%.

And the “% Remaining of Initial” value [10]?
Its value is less than 1.0%.

What about the “% Remaining of Initial” value [11] of the same compound?
Its value is less than 1.0%.

And the half-life at 1 μM [12]?
Its half-life at 1 μM is less than 10 min.

And the half-life at 1 μM (male, Sprague-Dawley, rat, s9, Half-life, calculated value in parentheses)?
Its half-life at 1 μM is 2 min.

For `C[C@]12CC[C@H]3[C@@H](CCC4=CC(=O)CC[C@@]43C)[C@@H]1CC[C@@H]2O` [Testosterone, testosterone, reference compound], which Half-life (Control Compound, Human liver S9) is on record?
The Half-life was 28 min.

And the Half-life (Control Compound, Mouse liver S9)?
Its Half-life is 9.0 min.

What about the CLint (Control Compound, Rat liver S9) of the same compound?
The CLint was 0.260 ml/min/mg protein.

And the Half-life (Human liver S9)?
Its Half-life is 28 min.

And the half-life (male, Beagle, s9)?
The half-life was 25 min.

What about the Half-life (male, CD-1, mouse, s9) of the same compound?
Its Half-life is 17 min.

And the half-life (male, CD-1, mouse, s9)?
Its half-life is 8.7 min.

And the half-life (male, Sprague-Dawley, rat, s9, Half-life, Control Compound, Rat liver S9)?
The half-life was 2.7 min.

What about the half-life at 1 μM (male, Sprague-Dawley, rat, s9, Half-life, Rat liver S9) of the same compound?
The half-life at 1 μM was 2.7 min.

What about the half-life (male, Sprague-Dawley, rat, s9, Half-life, control compound, rat liver S9) of the same compound?
Its half-life is 2.7 min.
